Measurements reported in ChEMBL document CHEMBL1157069, “JBIR-22, an inhibitor for protein-protein interaction of the homodimer of proteasome assembly factor 3” (J Nat Prod, 2010).

How the values were obtained:
HeLa [1] = assay: Cytotoxicity against human HeLa cells after 120 hrs by WST8 assay; format: functional, cell-based
[2] = target: Catenin beta-1/Transcription factor 7 (Homo sapiens, UniProt P35222+P36402); assay: Inhibition of T cell factor7/beta-catenin interaction by protein fragment complementation assay; format: cell-based
Sequence of Catenin beta-1/Transcription factor 7 (P36402 whole entry, the tested form may be a part): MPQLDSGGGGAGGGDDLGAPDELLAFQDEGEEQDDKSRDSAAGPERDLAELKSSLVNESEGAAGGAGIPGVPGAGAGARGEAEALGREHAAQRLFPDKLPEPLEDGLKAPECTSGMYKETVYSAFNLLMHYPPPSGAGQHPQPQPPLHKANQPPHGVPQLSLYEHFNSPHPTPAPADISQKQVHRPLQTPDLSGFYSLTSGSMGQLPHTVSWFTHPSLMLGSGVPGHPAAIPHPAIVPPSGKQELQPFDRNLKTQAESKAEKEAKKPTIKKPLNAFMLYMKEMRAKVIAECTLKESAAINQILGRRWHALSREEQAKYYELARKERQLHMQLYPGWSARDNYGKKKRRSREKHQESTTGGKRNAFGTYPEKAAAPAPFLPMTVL
Sequence of Catenin beta-1/Transcription factor 7 (P35222 whole entry, the tested form may be a part): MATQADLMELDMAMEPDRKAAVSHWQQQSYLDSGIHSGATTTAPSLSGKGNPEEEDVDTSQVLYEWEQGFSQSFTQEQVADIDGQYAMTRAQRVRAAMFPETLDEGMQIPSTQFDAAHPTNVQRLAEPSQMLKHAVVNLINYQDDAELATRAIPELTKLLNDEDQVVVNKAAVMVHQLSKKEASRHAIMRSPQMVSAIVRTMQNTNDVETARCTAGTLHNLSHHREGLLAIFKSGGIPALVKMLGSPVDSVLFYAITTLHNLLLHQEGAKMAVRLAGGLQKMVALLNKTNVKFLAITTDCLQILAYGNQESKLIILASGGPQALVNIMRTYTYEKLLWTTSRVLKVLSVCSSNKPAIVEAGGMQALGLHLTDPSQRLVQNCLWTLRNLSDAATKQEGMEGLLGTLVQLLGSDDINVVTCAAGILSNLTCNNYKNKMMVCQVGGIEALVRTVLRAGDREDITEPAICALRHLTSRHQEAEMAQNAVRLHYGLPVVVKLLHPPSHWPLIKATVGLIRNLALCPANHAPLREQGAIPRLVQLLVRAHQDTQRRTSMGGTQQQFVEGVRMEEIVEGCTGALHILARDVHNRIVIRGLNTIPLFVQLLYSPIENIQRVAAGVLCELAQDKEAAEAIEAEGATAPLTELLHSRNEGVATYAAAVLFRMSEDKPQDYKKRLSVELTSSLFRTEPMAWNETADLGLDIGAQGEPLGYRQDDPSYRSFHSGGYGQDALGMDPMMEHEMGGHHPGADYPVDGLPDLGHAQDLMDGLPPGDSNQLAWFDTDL

[3] = target: T1, Proteasome assembly chaperone 3 (Homo sapiens, UniProt Q9BT73); assay: Inhibition of PAC3 homodimerization by protein fragment complementation assay
T1 sequence (Q9BT73 whole entry): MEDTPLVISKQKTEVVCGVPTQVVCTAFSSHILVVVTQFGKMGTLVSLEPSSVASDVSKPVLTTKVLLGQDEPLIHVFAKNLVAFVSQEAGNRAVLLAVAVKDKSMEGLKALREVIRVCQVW

PAC1-PAC2 complex = target: T2, PAC1-PAC2 complex (Homo sapiens, UniProt O95456+Q969U7); assay: Inhibition of PAC1/PAC2 interaction by protein fragment complementation assay; format: protein-complex assay
T2 sequence (O95456 whole entry): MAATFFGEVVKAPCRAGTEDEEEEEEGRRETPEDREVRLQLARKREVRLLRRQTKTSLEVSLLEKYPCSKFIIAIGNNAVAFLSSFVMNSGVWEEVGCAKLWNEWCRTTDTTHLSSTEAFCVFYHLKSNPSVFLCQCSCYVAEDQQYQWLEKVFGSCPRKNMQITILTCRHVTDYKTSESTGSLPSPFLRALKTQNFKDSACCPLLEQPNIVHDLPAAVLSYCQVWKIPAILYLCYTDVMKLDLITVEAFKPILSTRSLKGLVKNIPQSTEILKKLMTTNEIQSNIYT
T2 sequence (Q969U7 whole entry): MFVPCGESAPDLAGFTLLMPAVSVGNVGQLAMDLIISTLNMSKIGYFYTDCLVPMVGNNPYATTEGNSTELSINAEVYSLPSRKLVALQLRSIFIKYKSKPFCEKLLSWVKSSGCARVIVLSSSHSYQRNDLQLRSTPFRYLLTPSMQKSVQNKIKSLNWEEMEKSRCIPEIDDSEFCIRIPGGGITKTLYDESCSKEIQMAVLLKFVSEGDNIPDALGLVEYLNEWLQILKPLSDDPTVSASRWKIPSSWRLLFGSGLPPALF

HeLa [4] = assay: Cytotoxicity against human HeLa cells after 48 hrs by WST8 assay; format: functional, cell-based

IC50 [2] [nM]	IC50 [3] [nM]	IC50 (PAC1-PAC2 complex) [nM]	SMILES	IC50 (HeLa [1]) [nM]	IC50 (HeLa [4]) [nM]
6000	200	6000	CC(C)[C@@](O)(C[C@H]1C(=O)/C(=C(\O)[C@H]2[C@@H]3CCCC[C@H]3C=C[C@H]2C)C(=O)N1C)C(=O)O	68000	
			COc1cccc2c1C(=O)c1c(O)c3c(c(O)c1C2=O)C[C@@](O)(C(=O)CO)C[C@@H]3O[C@H]1C[C@H](N)[C@H](O)[C@H](C)O1 [DOXORUBICIN]	55	37
			CC(=O)O[C@H]1C(=O)[C@@]2(C)[C@H]([C@H](OC(=O)c3ccccc3)[C@]3(O)C[C@H](OC(=O)[C@H](O)[C@@H](NC(=O)c4ccccc4)c4ccccc4)C(C)=C1C3(C)C)[C@]1(OC(C)=O)CO[C@@H]1C[C@@H]2O [PACLITAXEL]	190	30
